From ChEMBL document CHEMBL3734667 (Bioorg Med Chem, 2015)

Columns and labels:
[1] = Cytotoxicity against human MT4 cells assessed as cell viability after 96 hrs by MTT assay; assay type: cell-based
[2] = system: Human immunodeficiency virus 1; experiment: Antiviral activity against HIV-1 infected in MT4 cells assessed as inhibition of virus-induced cytopathogenicity after 4 days by MTT assay; assay type: functional, organism-based; settings: Human immunodeficiency virus 1, MT4, 96 h
[3] = Cytotoxicity against BHK cells assessed as cell viability after 48 to 96 hrs by MTT assay; assay type: cell-based, Mesocricetus auratus; settings: hamster
[4] = Cytotoxicity against MDBK cells assessed as cell viability after 48 to 96 hrs by MTT assay; assay type: cell-based, Bos taurus; settings: cattle
[5] = system: Bovine viral diarrhea virus 1; experiment: Antiviral activity against BVDV infected in MDBK cells assessed as inhibition of virus-induced cytopathogenicity after 3 to 4 days by MTT assay; assay type: functional, organism-based; settings: Bovine viral diarrhea virus isolates and strains
[6] = Cytotoxicity against african green monkey Vero 76 cells assessed as cell viability after 48 to 96 hrs by crystal violet staining method; assay type: cell-based; settings: chlorocebus sabaeus
Vaccinia virus = experiment: Antiviral activity against Vaccinia virus; assay type: functional, organism-based; settings: Orthopoxvirus vaccinia
Coxsackievirus B5 = experiment: Antiviral activity against human CVB5 infected in african green monkey Vero76 cells assessed as inhibition of virus-induced cytopathogenicity after 3 days by plaque reduction assay; assay type: functional, organism-based; settings: Enterovirus B, Vero 76, 72 h
Human orthopneumovirus = experiment: Antiviral activity against human RSV infected in african green monkey Vero76 cells assessed as inhibition of virus-induced cytopathogenicity after 5 days by plaque reduction assay; assay type: functional, organism-based; settings: human respiratory syncytial virus, Vero 76, 120 h
Yellow fever virus = experiment: Antiviral activity against YFV infected in BHK-21 cells assessed as inhibition of virus-induced cytopathogenicity after 3 to 4 days by MTT assay; assay type: functional, organism-based
[7] = system: Vesicular stomatitis virus; experiment: Antiviral activity against VSV; assay type: functional, organism-based
Poliovirus 1 = experiment: Antiviral activity against Human poliovirus 1 Sabin infected in african green monkey Vero76 cells assessed as inhibition of virus-induced cytopathogenicity by plaque reduction assay; assay type: functional, organism-based; settings: Enterovirus C, Vero 76
[8] = system: Mammalian orthoreovirus 1; experiment: Antiviral activity against Reo-1 virus infected in BHK-21 cells assessed as inhibition of virus-induced cytopathogenicity after 3 to 4 days by MTT assay; assay type: functional, cell-based; settings: Mammalian orthoreovirus 1, BHK-21
Human alphaherpesvirus 1 = experiment: Antiviral activity against HSV1; assay type: functional, organism-based

SMILES	CC50 at 96 h [1]	EC50 [2]	CC50 [3]	CC50 [4]	EC50 [5]	CC50 [6]	EC50 (Vaccinia virus)	EC50 (Coxsackievirus B5)	EC50 (Human orthopneumovirus)	EC50 (Yellow fever virus)	EC50 [7]	EC50 (Poliovirus 1)	EC50 [8]	EC50 (Human alphaherpesvirus 1)
Clc1c(Cl)c(Cl)c2c(nnn2C2CCCO2)c1Cl (stereo unspecified)	95 µM	> 100 µM	–	–	–	–	–	–	–	–	–	–	–	–
CC(CC(=O)O)n1nnc2ccc([N+](=O)[O-])cc21 (stereo unspecified)	> 100 µM	> 100 µM	> 100 µM	> 100 µM	> 100 µM	> 100 µM	> 100 µM	> 100 µM	> 100 µM	> 100 µM	> 100 µM	–	–	–
COc1cc(C(=O)OCCn2nc3ccccc3n2)cc(OC)c1OC	0.3 µM	> 100 µM	26 µM	6 µM	> 100 µM	1.6 µM	> 100 µM	> 100 µM	> 100 µM	> 100 µM	> 100 µM	–	–	–
CN1CCN(CCn2nnc3ccccc32)CC1	> 100 µM	> 100 µM	> 100 µM	> 100 µM	> 100 µM	> 100 µM	> 100 µM	> 100 µM	> 100 µM	> 100 µM	> 100 µM	–	–	–
O=C(O)COc1ccc(-n2nc3ccccc3[n+]2[O-])cc1	> 100 µM	> 100 µM	> 100 µM	> 100 µM	> 100 µM	> 100 µM	> 100 µM	> 100 µM	> 100 µM	> 100 µM	> 100 µM	> 100 µM	> 100 µM	–
Nc1nc2c(ncn2COCCO)c(=O)[nH]1 [ACYCLOVIR]	> 100 µM	–	> 100 µM	> 100 µM	> 100 µM	> 100 µM	> 100 µM	> 100 µM	> 100 µM	> 100 µM	> 100 µM	> 100 µM	–	1.2 µM
CC(CC(=O)O)n1nc2ccc([N+](=O)[O-])cc2n1 (stereo unspecified)	> 100 µM	> 100 µM	> 100 µM	> 100 µM	> 100 µM	> 100 µM	> 100 µM	> 100 µM	> 100 µM	> 100 µM	> 100 µM	–	–	–
O=C(Cn1nnc2ccccc21)N1CCOCC1	> 100 µM	> 100 µM	> 100 µM	> 100 µM	> 100 µM	> 100 µM	> 100 µM	> 100 µM	> 100 µM	> 100 µM	> 100 µM	–	–	–
C[C@H](Oc1ccc(-n2nc3ccccc3n2)cc1)C(=O)O	> 100 µM	> 100 µM	> 100 µM	> 100 µM	> 100 µM	> 100 µM	> 100 µM	> 100 µM	> 100 µM	> 100 µM	> 100 µM	> 100 µM	–	–
COc1cc(/C=C/C(=O)OCCn2nnc3ccccc32)cc(OC)c1OC	45 µM	> 100 µM	> 100 µM	70 µM	> 100 µM	> 100 µM	> 100 µM	> 100 µM	> 100 µM	> 100 µM	> 100 µM	–	–	–
C[C@@H](Oc1ccc(-n2nc3ccccc3n2)cc1)C(=O)O	> 100 µM	> 100 µM	> 100 µM	> 100 µM	> 100 µM	> 100 µM	> 100 µM	> 100 µM	> 100 µM	> 100 µM	> 100 µM	> 100 µM	–	–
CC(CC(=O)O)n1nc2ccc3ccccc3c2n1 (stereo unspecified)	> 100 µM	> 100 µM	> 100 µM	> 100 µM	> 100 µM	> 100 µM	> 100 µM	> 100 µM	> 100 µM	> 100 µM	> 100 µM	–	–	–
[O-][n+]1c2ccccc2nn1-c1ccc(O)cc1	> 100 µM	> 100 µM	> 100 µM	> 100 µM	> 100 µM	> 100 µM	> 100 µM	> 100 µM	> 100 µM	> 100 µM	> 100 µM	> 100 µM	> 100 µM	–
Clc1cc2nnn(C3CCCO3)c2cc1Cl (stereo unspecified)	> 100 µM	> 100 µM	> 100 µM	> 100 µM	> 100 µM	–	–	–	–	> 100 µM	–	–	–	–
COc1cc(C(=O)OCCCn2nc3ccccc3n2)cc(OC)c1OC	> 100 µM	> 100 µM	> 100 µM	> 100 µM	> 100 µM	> 100 µM	> 100 µM	> 100 µM	> 100 µM	> 100 µM	> 100 µM	–	–	–
NCCn1nnc2ccccc21	> 100 µM	> 100 µM	> 100 µM	> 100 µM	> 100 µM	> 100 µM	> 100 µM	> 100 µM	> 100 µM	> 100 µM	> 100 µM	–	–	–
COc1cc(/C=C/C(=O)OCCn2nc3ccccc3n2)cc(OC)c1OC	≥ 100 µM	> 100 µM	> 100 µM	> 100 µM	> 100 µM	> 100 µM	> 100 µM	> 100 µM	> 100 µM	> 100 µM	> 100 µM	–	–	–
CN(C)C(=O)Cn1nnc2ccccc21	> 100 µM	> 100 µM	> 100 µM	> 100 µM	> 100 µM	> 100 µM	> 100 µM	> 100 µM	> 100 µM	> 100 µM	> 100 µM	–	–	–
CN(C)c1cccc(C(=O)OCCn2nnc3ccccc32)c1	65 µM	> 100 µM	> 100 µM	≥ 100 µM	> 100 µM	≥ 100 µM	> 100 µM	> 100 µM	> 100 µM	> 100 µM	> 100 µM	–	–	–
COc1cc(/C=C/C(=O)OCCCn2nnc3ccccc32)cc(OC)c1OC	> 100 µM	> 100 µM	> 100 µM	83 µM	> 100 µM	> 100 µM	> 100 µM	> 100 µM	> 100 µM	> 100 µM	> 100 µM	–	–	–
CN(C)C(=O)Cn1nc2ccccc2n1	> 100 µM	> 100 µM	> 100 µM	> 100 µM	> 100 µM	> 100 µM	> 100 µM	> 100 µM	> 100 µM	> 100 µM	> 100 µM	–	–	–
NNC(=O)Cn1nnc2ccccc21	> 100 µM	> 100 µM	> 100 µM	> 100 µM	> 100 µM	> 100 µM	> 100 µM	> 100 µM	> 100 µM	> 100 µM	> 100 µM	–	–	–
COc1ccc(-n2nc3cc(Cl)c(Cl)cc3n2)cc1	> 100 µM	> 100 µM	> 100 µM	> 100 µM	> 100 µM	> 100 µM	> 100 µM	> 100 µM	> 100 µM	> 100 µM	> 100 µM	> 100 µM	> 100 µM	–
O=C(Cn1nc2ccccc2n1)N1CCOCC1	> 100 µM	> 100 µM	> 100 µM	> 100 µM	> 100 µM	> 100 µM	> 100 µM	> 100 µM	> 100 µM	> 100 µM	> 100 µM	–	–	–
Clc1cc2nn(C3CCCO3)nc2cc1Cl (stereo unspecified)	> 100 µM	> 100 µM	> 100 µM	> 100 µM	> 100 µM	–	–	–	–	> 100 µM	–	–	–	–
Cc1cc2nnn(C3CCCO3)c2cc1C (stereo unspecified)	> 100 µM	> 100 µM	> 100 µM	> 100 µM	> 100 µM	–	–	–	–	> 100 µM	–	–	–	–
COc1cc(C(=O)OCCn2nnc3ccccc32)cc(OC)c1OC	1.9 µM	> 100 µM	70 µM	40 µM	> 100 µM	80 µM	> 100 µM	> 100 µM	> 100 µM	> 100 µM	> 100 µM	–	–	–
O=C(O)COc1ccc(-n2nc3ccc(Cl)cc3[n+]2[O-])cc1	> 100 µM	> 100 µM	> 100 µM	> 100 µM	> 100 µM	100 µM	> 100 µM	> 100 µM	> 100 µM	> 100 µM	> 100 µM	> 100 µM	> 100 µM	–
COc1cc(C(=O)OCCCn2nnc3ccccc32)cc(OC)c1OC	> 100 µM	> 100 µM	> 100 µM	≥ 100 µM	> 100 µM	100 µM	> 100 µM	> 100 µM	> 100 µM	> 100 µM	> 100 µM	–	–	–
